Source: patent US20150343016A1, “CHEMICAL ENTITIES AND THERAPEUTIC USES THEREOF” (The Regents of the University of Colorado, a body corporate, priority 2010, published 2015)
Entries after “also recorded” stand apart in the source; their conditions may differ. Read-outs that look alike come from different tables or passages of the source.

How the values were obtained:
Type in all cases: cell-based, human
H157 cells = test: MTT assay, Bouvardin with ionizing radiation, H157
Description: (§1) “Combination Index” computation. Combination Indices were calculated using CalcuSyn software (Biosoft), which uses the method of Chou and Talalay. This method first computes drug-induced effect using the Hill Equation: where E is the measured effect; C is the drug concentration; Emax is the full range of drug effect, usually at or near 100%; IC50 is the drug concentration producing the median effect of 50%; and n is the curve shape parameter describing the steepness of the concentration-effect relationship. The Chou and Talalay method then linearizes the Hill Equation by logarithmic transformation as: where fu is the fraction of cells left unaffected after drug exposure, fa is the fraction of cells affected by the exposure, C is the drug concentration used, Cm is the concentration to achieve the median effect, and n is the curve shape parameter. Cm and n are equivalent to IC50 and n, respectively, in the Hill Equation. The values of n (obtained from the slope), nlog(Cm) (obtained from the absolute value of the intercept), and, therefore, Cm are obtained by plotting log(fu−1−1) versus log(C). These numbers are then used to compute the Combination Index (CI) according to the formula: CI=(D)1/(Dx)1+(D)2/(Dx)2 (26). (Dx)1 and (Dx)2 are the doses required to achieve a given effect level for each treatment, i.e. a specified value of Fraction Affected or Fa. (D)1 and (D)2 are the doses of each treatment in a given combination which gives the same Fa.
In FIG. 16 MTT assays were used to determine the effect of Bouvardin in combination with IR. Cells were either treated with drug for 24 hr prior to irradiation (A and C, ‘pre-treatment’) or drug and radiation were applied on the same day (B and D, ‘same day treatment’). (A & B) Fraction of cells killed or otherwise eliminated (Fraction Affected) at different doses of Bouvardin and 0 or 2 Gy of IR. (C & D) Combination Index (CI) data from two experiments with pre-treatment protocol, to illustrate reproducibility. CIs below 1 indicate synergy.
In the absence of radiation, the drug has an IC50 (Fraction Affected, Fa=0.5) in the nM range ([…], ‘0 Gy’). Fraction Affected is determined by the formula, 1−(x/y), where x is the MTT signal for the experimental sample and y is the MTT signal for the un-treated control. For example, if the MTT signal in the experimental is 30% of the MTT signal in the control, fraction affected is 0.7. Radiation increased the Fa in a dose-dependent manner in the absence of drug. The addition of the drug further increased the Fa for each dose of radiation. This happened whether the drug was added 24 hr before irradiation (pre-treatment, FIGS. 16A,C) or concurrently (same day treatment, FIGS. 16B,D).
The efficiency of Bouvardin in increasing the effect of radiation on cancer cells is measured in terms of Combination Index (CI) as determined by CalcuSyn software according to the method of Chou and Talalay. This method is widely used in biomedical literature and it has been applied to combinations of antitumor drugs. CI values are calculated from Fa values for multiple drug and radiation doses such as those shown in FIGS. 16 A and B. CI computation takes into account the shape of the dose-response curve, the maximal effect, the intercept, and the IC50 values for drug at each dose of radiation and IC50 for radiation at each dose of drug. […]
The growth inhibitory effects of Bouvardin with ionizing radiation (IR) were evaluated using a modified tetrazolium salt (MTT) assay. […]

Det562 cells = test: MTT assay, Bouvardin with ionizing radiation, Det562 (same-day treatment)
Description: as §1
For FIG. 19 MTT assays were used to determine the effect of Bouvardin (concentrations in uM) in combination with ionizing radiation (in Gy). The data from same-day treatment of IR and Bouvardin are shown, for comparison with taxol-Bouvardin combination that were also applied on the same day. In general, CI values were lower for FaDu cells than for Det562 cells in two separate experiments (only one set is shown). On Det562 cells, CI values were about 1 for most combinations. CI value for Det562 cells at 0.001 uM/1Gy and at >0.06 uM are not included in the graph because the values are >10 and would have made smaller values harder to see. On FaDu cells, CI values were below 1 at concentrations of 0.03 or lower, were about 1 for 0.06 uM drug, and were over 1 at higher concentrations.
The growth inhibitory effects of Bouvardin with ionizing radiation (IR) were evaluated using a modified tetrazolium salt (MTT) assay. In the MTT assay, 1,000 to 2,000 viable cells were plated in 100 uL of growth medium in 96-well plates (Corning, Ithaca, N.Y.). Following an overnight incubation, drug was added in varying concentrations and the plates were irradiated on the same day (co-treatment) or 24 hr later (pre-treatment) and incubated for 6 to 7 days. The tetrazolium salt was added at a concentration of 0.4 mg/mL to each well following the 6- to 7-day treatment. The plates were incubated with the salt for 4 hours at 37° C. At 4 hours, the medium was aspirated off, leaving the dark blue formazan product at the bottom of the wells. The reduced MTT product was solubilized by adding […] of 0.2 N HCl in 75% isopropanol, 23% MilliQ water to each well. Thorough mixing was done using a Titertek multichannel pipetman. The absorbency of each well was measured using an automated plate reader (Molecular Devices, Sunnyvale, Calif.). All experiments were done in triplicate.

[1] = system: head and neck squamous cell carcinola line (UMSCC2B); test: MTT assay, bouvardin with radiation, UMSCC2B; details: over a wide range of concentrations
Description: MTT assays were used to test the effects of bouvardin alone and in combination with radiation on numerous cell lines. Bouvardin and radiation synergize in non-small cell lung cancer cell line (H157) and head and neck squamous cell carcinola line (UMSCC2B) over a wide range of concentrations between bouvardin and radiation. FIG. 8 depicts this synergy in these two cell lines. The efficiency of bouvardin in sensitizing cancer cells to radiation is measured in terms of Combination Index (CI) as determined by Calcusyn software. CI values are either above, below or equal to 1, indicating antagonizing, synergistic or additive effects respectively. “Gy” in FIG. 8 stands for “Gray,” a radiation unit.
The growth inhibitory effects of Bouvardin with ionizing radiation (IR) were evaluated using a modified tetrazolium salt (MTT) assay. In the MTT assay, 1,000 to 2,000 viable cells were plated in 100 uL of growth medium in 96-well plates (Corning, Ithaca, N.Y.). Following an overnight incubation, drug was added in varying concentrations and the plates were irradiated on the same day (co-treatment) or 24 hr later (pre-treatment) and incubated for 6 to 7 days. The tetrazolium salt was added at a concentration of 0.4 mg/mL to each well following the 6- to 7-day treatment. […] The absorbency of each well was measured using an automated plate reader (Molecular Devices, Sunnyvale, Calif.). […]

SMILES: COc1ccc(C[C@H]2C(=O)N[C@H](C)C(=O)N(C)[C@@H]3C(=O)N(C)[C@@H](Cc4ccc(O)c(c4)Oc4ccc(cc4)[C@H]3O)C(=O)N[C@@H](C)C(=O)N[C@H](C)C(=O)N2C)cc1 (stereo in doubt) [Bouvardin, bouvardin]
- interaction with radiation in cell-based assays (H157 cells; 0.3 μM of drug): synergistically
- interaction with radiation in cell-based assays (H157 cells; 0.6 μM of drug): additively/antagonistically
- interaction of Bouvardin with radiation (H157 cells; H157): synergy over a wide range of doses; also recorded: synergize
- IC50 (Fraction Affected, Fa=0.5) (H157 cells; H157, in the absence of radiation (0 Gy)): nM range
- interaction of Bouvardin with radiation (H157 cells; H157, listed as bouvardin): synergizes with ionizing radiation
- interaction of Bouvardin with IR (Det562 cells): a wide range of effects, synergistic to antagonistic
- CI value, Bouvardin with IR (Det562 cells; 0.001 uM/1Gy): > 10
- CI value, Bouvardin with IR (Det562 cells; at >0.06 uM): > 10
- interaction of Bouvardin with IR (Det562 cells; listed as bouvardin): synergizes with ionizing radiation
- CI values, Bouvardin with IR (Det562 cells; most combinations): about 1
- interaction of Bouvardin with radiation [1]: synergize
